Results: paper PMC8333620, “Novel Tl(III) complexes containing pyridine-2,6-dicarboxylate derivatives with selective anticancer activity through inducing mitochondria-mediated apoptosis in A375 cells” (Scientific Reports, 2021)
Like-named read-outs stand apart in the source and are kept apart here.

Key:
[1] = tested on: A375 (a human melanoma) cell line; test: MTT cytotoxicity assay, A375; type: cell-based; settings: for IC50: read-out: Cytotoxicity (IC50 ± SEM) against A375; for Viability inhibition, A375: concentration not given
Method: (§1) In this study, A375 (a human melanoma), HT29 (a human colon adenocarcinoma), and HFF (a human foreskin fibroblast) cell lines were provided from the Pasteur Institute (Iran). […] 10 mM stock solutions of compounds were prepared in DMSO and diluted in a fresh medium for use. The final concentration of DMSO never exceeded 0.1% (v/v). […] Then the medium was replaced with the respective medium containing ligands or Tl(III) complexes at different concentrations and incubated for 48 h. 10 μL of MTT was added and the medium was removed after 4 h of incubation. Finally, the violet crystal was solubilized in 100 μL DMSO and the absorbance was measured at 570 nm. IC50 value was measured by the standard method. The evaluations were carried out in triplicate[21],[23].

[2] = tested on: HT29 (a human colon adenocarcinoma) cell line; test: MTT cytotoxicity assay, HT29; type: cell-based; settings: read-out: Cytotoxicity (IC50 ± SEM) against HT29
Method: as §1

[3] = MTT cytotoxicity assay, HFF; type: cell-based, human; settings: human; MTT, 48 h; read-out: Cytotoxicity (IC50 ± SEM) against HFF
Method: as §1

A375 cells [4] = test: Intracellular ROS (H2DCF-DA, flow cytometry), A375; type: cell-based, human; settings: A375, IC50 concentrations, 24 h
Method: The generation of intracellular ROS was evaluated by reactive oxygen species assay kit. 2 mL of A375 cells (1 × 10^6 cells/mL) were induced with C1–C3 (at IC50 concentrations) at 37 °C for 24 h, serum-free medium washed twice. Then, the cells were incubated in 2 mL of serum-free medium containing H2DCF-DA (2 μM) for 30 min at 37 °C, serum-free medium washed twice. Cells were collected and assayed by flow cytometer with excitation wavelength at 489 nm and emission wavelength at 524 nm, and ten thousand events were collected. The DCF fluorescence peak for this cell sample was evaluated and data were analyzed by FlowJo software. This test was performed as explained on HFF cells treatment to C3 (at the highest concentration)[38].

[5] = tested on: HFF (a human foreskin fibroblast) cell line; test: MTT cytotoxicity assay, HFF; type: cell-based; settings: MTT, 48 h; read-out: Cytotoxicity (IC50 ± SEM) against HFF
Method: as §1

[6] = Cyclic voltammetry of the complexes; type: physicochemical; settings: versus Ag/AgCl, KCl 0.1 M, GCE, scan rate 50 V/s; for formal potential E0': 4 × 10^–3 mol/dm^3 in H2O; for EA (anodic peak potential) / EC (cathodic peak potential): H2O
From the text: The electrochemical behavior of the complexes and also their ligands was studied by the cyclic voltammograms in the potential range of + 1.5 to –1.5 V and a scan rate of 50 Vs^–1. […] Redox couples at E^0ˊ 0.109, –0.051, and 0.244 V were obtained for C1, C2, and C3, respectively. The electrochemical oxidation of all three complexes seems be a one-stage process which includes irreversible couples with EC = –0.363 V, EA = 0.472 V for C1, EC = –0.271 V, EA = 0.220 V for C2 and EC = –0.337 V, EA = 0.581 V for C3. The peaks can be interpreted according to the Tl(III)/Tl(I) redox system for complexes. […] Therefore, redox couples are related to only the metal centers in complexes[27],[28].
Figure 4 Cyclic voltammogram of complexes c = 4 × 10^–3 mol/dm^3 in H2O medium, KCl (0.1 M) at GCE, scan rate 50 V/s.
Pyridine-2,6-dicarboxylic acid, 4-hydroxy-pyridine-2,6-dicarboxylic acid, 2-aminobenzimidazole, 4-aminopyridine, and thallium(III) nitrate trihydrate were purchased from the commercial sources and were used as received. The solvents were distilled for all synthetic works. Melting points were obtained on an Electrothermal IA-9100 apparatus. The FT-IR spectra were recorded on a Bruker Vector 22 FT-IR spectrometer using KBr pellets. Electronic spectra were recorded on Specord 210, Analytik Jena spectrophotometer in the range of 200–900 nm at room temperature. The ^1HNMR spectra were obtained from Bruker Ultrashield 400 spectrometer. Microanalyses (C, H, N) were measured with a Perkin-Elmer 2004(II) elemental analyzer. Electrochemical experiments were performed using a µAUTOLAB modular electrochemical system (ECO Chemie, Utrecht, the Netherlands) equipped with a PGSTAT type III module driven by GPES software in conjunction with a conventional three-electrode system an Ag/AgCl/3 M KCl and platinum wire as reference and counter electrode respectively and a GC as the working electrode.

p53 = test: Western blot, p53 in A375 cells; type: cell-based, human; settings: A375, IC50 concentrations, 24 h
Method: (§2) After incubation with C1 and C3 at IC50 concentrations for 24 h, A375 cells were harvested and lysed in 150 μL of lysis buffer (149 μL RIPA and 1 μL PMSF), and then placed on ice for 15 min. Total proteins were extracted by centrifuging the cell sample at 10,000 rpm and 4 °C for 10 min. Then about 50 μg of purified proteins were mixed with an equal volume of electrophoresis sample buffer, and the mixture was heated for 10 min. Meanwhile, the equal protein content from the control cells was prepared in the same way. The cell sample (10 μL) was loaded onto 10% SDS-PAGE gels and then transferred onto a microporous polyvinylidene difluoride (PVDF) membrane. The membrane was blocked with 5% BSA in TBST buffer for more than 2 h. After the removal of TBST buffer, membranes were incubated with an appropriate dilution of specific primary antibodies in TBST overnight at 4 °C and then washed with TBST three times. The membranes were incubated with secondary antibodies for 1 h and washed with TBST. The immunoreactive signals were detected using an enhanced chemo-luminance kit (Pierce ECL Western Blotting Substrate) following the procedures given in the user manual[46],[63].

A375 cells [7] = test: Cell cycle analysis (PI, flow cytometry), A375; type: cell-based, human; settings: A375, IC50 concentrations, 24 h; with respect to untreated control cells
Method: A375 cells were seeded in 6-well plates with 1.5 × 10^6 cells /well and treated with the C1 and C3 at IC50 concentrations for 24 h. Cells were trypsinized, collected, and fixed in ice-cold 75% ethanol at − 20 °C overnight. After centrifugation, the fixed cells were rinsed with ice-cold phosphate-buffered saline (PBS) and resuspended in 0.5 mL of PBS containing 100 μg/mL DNase-free RNase A (Thermo Fisher Scientific Biosciences GmbH, St. Leon-Rot, Germany), 50 μg/mL propidium iodide (PI; Sigma Aldrich) in the dark for 30 min. The distribution of the cells in different phases of the cell cycle was determined using flow cytometry (Attune Nxt, Thermo Fisher Scientific-US) and FlowJo software v10.6.1 (https://www.flowjo.com/solutions/flowjo/downloads) was used to analyze the data. This test was performed as explained on HFF cells treatment to C3 (at the highest concentration)[62].

procaspase-9 = test: Western blot, procaspase-9 in A375 cells; type: cell-based, human; settings: A375, IC50 concentrations, 24 h, densitometry
Method: as §2

Bax/Bcl-2 = test: Western blot, Bax/Bcl-2 ratio in A375 cells; type: cell-based, human; settings: A375, IC50 concentrations, 24 h
Method: as §2

A375 cells [8] = test: Mitochondrial membrane potential assay (JC-1), A375; type: cell-based, human; settings: A375, IC50 concentrations, JC-1, 24 h
Method: Mitochondrial membrane potential analysis was determined by fluorescent dye JC-1 staining according to the manufacturer's protocol for the JC-1 assay kit. In brief, 2 mL of A375 cells (1 × 10^5 cells/mL) were treated with IC50 concentrations of C1 and C3 in 6-well plates for […]. Cells were harvested and washed three times with PBS after 24 h of incubation. Then cells were stained with 1 mL of JC-1 stock solution (10 mg/mL). Assays were initiated by incubating A375 cells with JC-1 for 30 min at 37 °C in the dark and detected with a fluorescence microscope. This test was performed as explained on HFF cells treatment to C3 (at the highest concentration).

A375 cells [9] = test: Apoptosis by Annexin-V/PI staining; type: cell-based, human; settings: A375, IC50 concentrations, 24 h
Method: Annexin V-FITC and PI staining (Annexin V/PI) apoptosis detection kit were used for assessing the percentage of dead cells by apoptosis pathway. Briefly, A375 cells were treated with C1 and C3 at IC50 concentrations. After 24 h of incubation, cells were washed with PBS, trypsinized, centrifuged, and re-suspended in 100 μL binding buffer at a concentration of 1 × 10^6 cells/mL, then added 5 μL of annexin V-FITC conjugate (30 min), and 5 μL of Propidium Iodide (PI) to each cell suspension (20 min) in the dark. The samples were analyzed using a flow cytometer (Attune Nxt, Thermo Fisher Scientific-US), and the results were assessed using the FlowJo software.

Molecule	ROS level (DCF oxidation), more effective than vehicle control-treated (A375 cells [4])	Viability inhibition, A375 ([1]; MTT, 48 h)	IC50 ([1]; MTT, 48 h)	IC50 ([2]; MTT, 48 h)	IC50 [5]	formal potential E0' [6]	EA (anodic peak potential) [6]	EC (cathodic peak potential) [6]	also measured
O=C(O)c1cccc(C(=O)O)n1 [pydcH2, 2,6-Pyridinedicarboxylic acid]	–	–	–	–	–	–	–	–	IC50 ([1]; Homo sapiens, A-375, 48 h): 442.6 ± 1.22 µM; IC50 ([2]; Homo sapiens, HT-29, 48 h): 430.2 ± 2.09 µM; IC50 at 48 h [3]: > 500 µM
(2-abH)[Tl(hpydc)2(H2O)2]∙6H2O [C2]	23.5%	35.28%	421.1 ± 0.55 µM	486.2 ± 0.69 µM	> 500 µM	–0.051 V	0.220 V	–0.271 V	–
(2-abH)2[Tl(pydc)2(H2O)2]2∙11H2O [C1]	189.9%	55.44%	81.5 ± 1.02 µM	354.4 ± 0.71 µM	> 500 µM	0.109 V	0.472 V	–0.363 V	level of p53 (p53): significantly enhanced; rise in the cellular population of the G2-M phase (A375 cells [7]): 16.91%; procaspase-9 level compared to control (procaspase-9): 64.12%; ratio of Bax/Bcl-2 (Bax/Bcl-2): 3.60 fold; mitochondrial membrane potential (MMP) in A375 cells (A375 cells [8]): MMP reduction; apoptosis, more effective than vehicle control-treated (A375 cells [9]): 62.24%; early apoptosis (annexin V+/PI-, Q3) (A375 cells [9]): 14.22%; late apoptosis (annexin V+/PI+, Q2) (A375 cells [9]): 48.01%
Nc1ccncc1 [4-apy, 4-aminopyridine]	–	–	–	–	–	–	–	–	IC50 ([1]; Homo sapiens, A-375, MTT, 48 h): 491.9 ± 1.56 µM; IC50 ([2]; Homo sapiens, HT-29, MTT, 48 h): > 500 µM; IC50 [3]: > 500 µM
